Measured values as given in patent publication US20250101052A1, “COMPOUND FOR EGFR KINASE INHIBITOR, COMPOSITION, AND USE THEREOF” (INNOVATION INSTITUTE FOR ARTIFICIAL INTELLIGENCE IN …, priority 2021, published 2025).
Like-named read-outs stand apart in the source and are kept apart here.

What was measured:
[1] = system: BaF3-EGFR^L858R/C797S cells; test: BaF3 cell proliferation inhibition experiment (CCK-8); format: cell-based; conditions: Ba/F3 EGFR-L858R, read-out: BaF3-EGFR^L858R/C797S (IC50 nM)
Protocol: (§1) A. Cell line: BaF3 cells with stable overexpression of wild-type genes are named BaF3-EGFR^WT, and BaF3 cells with stable overexpression of EGFR^L858R/T790M/C797S EGFR^del19/T790M/C797S EGFR^L858R/C797S and EGFR^del19/C797S mutant genes are named BaF3-EGFR^L858R/T790M/C797S BaF3-EGFR^del19/T790M/C797S BaF3-EGFR^L858R/C797S and BaF3-EGFR^del19/C797S cells, respectively. Mediums:
(§2) a) The medium was preheated in a 37° C. water bath.
(§3) b) The cryopreservation tube was taken from the liquid nitrogen tank, quickly placed in a 37° C. water bath, and melted completely within 1 minute.
(§4) c) The cell suspension was transferred to a 15 mL centrifuge tube containing a 10 mL medium and centrifuged at 1000 rpm for 4 minutes.
(§5) d) The supernatant was discarded, the cells were resuspended in a 1 mL medium and transferred to a […] culture dish containing a 10 mL medium, 20% serum and 50 ng/mL EGF were administered to the first-generation medium, and culture was conducted in a 37° C. and 5% CO2 incubator.
(§6) b) The cells in the culture dish were blown evenly with a 5 mL pipette, and 500 μL of the cells were pipetted out to be inoculated into a new […] culture dish and cultured in a 37° C. and 5% CO2 incubator.
(§7) a) The compound to be tested (10 mM stock solution) was diluted with 100% DMSO to 1 mM, and diluted with a culture solution in a 24-well plate to prepare of a working solution of 2 μM concentration.
(§8) b) The 2 μM working solution was diluted with a triple dilution method to obtain working solutions with approximate concentrations of 2 μM, 600 nM, 200 nM, 60 nM, and 20 nM.
(§9) a) The cells at the logarithmic growth phase were centrifuged at 1000 rpm for 4 minutes, resuspended with a medium (containing 10% serum and 50 ng/mL EGF), and counted.
(§10) b) The cells were inoculated into a 96-well plate with a cell density of 4000 cells/well, and placed in a 37° C. and 5% CO2 incubator for culture for 12 hours.
(§11) a) The prepared compound was added to a 96-well plate, with 100 μL per well. The final concentrations were 1 μM, 300 nM, 100 nM, 30 nM, 10 nM, and 0 nM, and the final concentration of DMSO was 0.2%. A medium served as a blank control.
(§12) b) The cells were placed in 37° C. and 5% CO2 incubator for culture for 72 hours.
(§13) (5) Cell Viability Testing
(§14) a) The 96-well cell culture plate was taken out, and 20 μL of a CCK-8 reagent (Cell Counting Kit-8, Topscience, Catalog No. C0005) was added in the dark.
(§15) b) Mixing well was conducted on a horizontal shaking table at a room temperature at 100 rpm for 5 minutes.
(§16) c) The culture plate was placed in a 37° C. constant-temperature incubator for incubation.
(§17) The data was analyzed using GraphPad Prism 8.0 software to obtain a fitted curve of activity of the compounds. The IC50 of the compounds was fitted from nonlinear regression equation.

[2] = system: BaF3-EGFR^WT cells; test: as above; format: cell-based; conditions: Mus musculus, read-out: BaF3-EGFR^WT (IC50 nM)
Protocol: as §1, §2, §3, §4, §5, §6, §7, §8, §9, §10, §11, §12, §13, §14, §15, §16, §17

[3] = system: BaF3-EGFR^del19/C797S cells; test: as above; format: cell-based; conditions: Mus musculus, read-out: BaF3-EGFR^del19 /C797S (IC50 nM)
Protocol: as §1, §2, §3, §4, §5, §6, §7, §8, §9, §10, §11, §12, §13, §14, §15, §16, §17

[4] = system: BaF3-EGFR^del19/T790M/C797S cells; test: as above; format: cell-based; conditions: Ba/F3 EGFR-Del19/T790M/C797S, read-out: BaF3-EGFR^del19 /T790M/C797S (IC50 nM)
Protocol: as §1, §2, §3, §4, §5, §6, §7, §8, §9, §10, §11, §12, §13, §14, §15, §16, §17

[5] = target: EGFR^L858R/T790M/C797S kinase (Homo sapiens (Human), UniProt P00533, C797S/L858R/T790M); test: EGFR^L858R/T790M/C797S kinase inhibitory activity experiment; format: biochemical; conditions: in vitro
Chain of EGFR^L858R/T790M/C797S kinase (P00533 25-1210 T790M/C797S/L858R): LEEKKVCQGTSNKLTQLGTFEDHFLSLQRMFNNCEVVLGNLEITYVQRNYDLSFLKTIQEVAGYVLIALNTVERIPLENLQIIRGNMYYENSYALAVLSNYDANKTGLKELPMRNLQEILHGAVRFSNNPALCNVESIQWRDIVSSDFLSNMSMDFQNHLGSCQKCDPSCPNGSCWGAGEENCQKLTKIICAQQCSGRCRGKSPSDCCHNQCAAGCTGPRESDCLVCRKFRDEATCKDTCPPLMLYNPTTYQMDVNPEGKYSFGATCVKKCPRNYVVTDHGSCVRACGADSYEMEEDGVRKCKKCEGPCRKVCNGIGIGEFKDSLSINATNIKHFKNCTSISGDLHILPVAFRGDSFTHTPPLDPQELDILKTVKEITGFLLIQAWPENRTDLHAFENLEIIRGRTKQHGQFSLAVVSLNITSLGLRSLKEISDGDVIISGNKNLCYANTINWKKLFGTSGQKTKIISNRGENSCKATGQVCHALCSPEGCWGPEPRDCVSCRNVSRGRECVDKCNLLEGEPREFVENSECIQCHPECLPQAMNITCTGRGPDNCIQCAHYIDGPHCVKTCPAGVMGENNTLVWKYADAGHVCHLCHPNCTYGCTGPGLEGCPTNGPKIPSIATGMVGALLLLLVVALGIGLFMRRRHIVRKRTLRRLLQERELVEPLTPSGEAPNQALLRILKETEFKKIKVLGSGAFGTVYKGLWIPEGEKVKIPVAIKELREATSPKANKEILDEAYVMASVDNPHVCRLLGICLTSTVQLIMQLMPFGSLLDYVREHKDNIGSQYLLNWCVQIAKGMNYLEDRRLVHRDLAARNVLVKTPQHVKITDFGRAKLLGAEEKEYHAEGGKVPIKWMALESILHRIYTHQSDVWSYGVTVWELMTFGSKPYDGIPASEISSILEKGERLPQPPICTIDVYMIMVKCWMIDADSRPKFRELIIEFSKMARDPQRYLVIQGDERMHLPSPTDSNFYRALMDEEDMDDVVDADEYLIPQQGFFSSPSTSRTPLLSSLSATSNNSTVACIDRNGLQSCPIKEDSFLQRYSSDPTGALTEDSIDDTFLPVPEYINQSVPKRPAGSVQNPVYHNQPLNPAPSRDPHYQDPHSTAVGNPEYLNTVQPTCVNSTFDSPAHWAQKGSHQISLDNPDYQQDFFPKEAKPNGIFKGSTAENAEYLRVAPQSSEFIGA
In short: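 Human EGFR L858R/T790M/C797S mutant preincubated 10 min with compound (10-point dilution from 1 μM), then reacted 60 min at room temperature with ATP and kinase substrate 22. Substrate conversion read by Caliper mobility shift. % inhibition normalized to no-enzyme and no-compound wells, with IC50 from variable-slope log(inhibitor) fit.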

[6] = system: BaF3-EGFR^L858R/T790M/C797S cells; test: BaF3 cell proliferation inhibition experiment (CCK-8); format: cell-based; conditions: Ba/F3 EGFR-L858R, 72 hours
Source text: BaF3 cell proliferation inhibition experiment: The compounds of the present invention have excellent inhibitory activity against the proliferation of BaF3-EGFR^L858R/T790M/C797S cells
as §1, §2, §3, §4, §5, §6, §7, §8, §9, §10, §11, §12, §13, §14, §15, §16
d) Starting from the addition of the CCK-8, the absorbance at 450 nm was read using the TECAN microplate reader at 1 hour, 2 hours, and 3 hours, respectively.
as §17

[7] = system: A431 cells; test: A431 cell proliferation inhibition (SRB); format: cell-based; conditions: Homo sapiens, A-431, wild-type EGFR, 72 hours
Protocol: A431 cell proliferation inhibition: The compounds of the present invention have good selectivity to wild-type EGFR
as §2, §3, §4, §5, §6, §7, §8, §9, §10, §11, §12, §13
a) The cell supernatant was discarded, rinsed once with 1×PBS, and fixed with 10% trichloroacetic acid for 1 hour. The trichloroacetic acid was discarded, excess trichloroacetic acid was washed off with tap water, and the 96-well plate was dried in a 60° C. oven.
b) 70 μL of an SRB stain was added to each well of the dry 96-well plate for staining at a room temperature for 30 minutes. Excess SRB stain was washed off with 1% glacial acetic acid, and the 96-well plate was dried in a 60° C. oven.
c) SRB was dissolved with 100 μL of 10 mM Tris-base solution. The absorbance was detected at 540 nm ultraviolet absorption using the microplate reader. The data was analyzed.
as §17

[8] = BaF3, cell proliferation, 72 hours

Molecule C=CC(=O)Nc1cc(Nc2nccc(-c3cn(C)c4ccccc34)n2)c(OC)cc1N(C)CCN(C)C [AZD9291, reference compound] has an IC50 ([1]; 72 h) of over 1000 nM, an IC50 ([2]; BaF3, 72 h) of 76.1 nM and an IC50 ([3]; BaF3, 72 h) of over 1000 nM. The IC50 ([4]; 72 h) was 614 nM.

CCc1cc(Nc2ncc(Cl)c(Nc3ccc(C)c(C)c3P(C)(C)=O)n2)c(OC)cc1N1CCC(N2C[C@H]3CN(C)C[C@H]3C2)CC1 [Compound 52, (6-((5-Chloro-2-((5-ethyl-2-methoxy-4-(4-((3aR,6aS)-5-methyloctahydropyrrol[3,4-C]pyrrol-2(1H)-yl)piperidin-1-yl)phenyl)amino)pyrimidin-4-yl)amino)-2,3-dimethylphenyl)dimethylphosphine oxide] gave an IC50 [5] of 0.0369 nM, an IC50 [6] of 236 nM and an IC50 [7] of 606 nM. For the same molecule, the IC50 [2, 8] was 353 nM and the IC50 ([4]; cell proliferation, 72 hours) was 92.8 nM.

Work on CCc1cc(Nc2ncc(Cl)c(Nc3ccc(C)c(C)c3P(C)(C)=O)n2)c(OC)cc1N1CCC(N2CC3CC2CN3C)CC1 (stereo not drawn) [Compound 54, (6-((5-Chloro-2-((5-ethyl-2-methoxy-4-(4-(5-methyl-2,5-diazadicyclo[2.2.1]heptane-2-yl)piperidin-1-yl)phenyl)amino)pyrimidin-4-yl)amino)-2,3-dimethylphenyl)dimethylphosphine oxide] yielded an IC50 [5] of 0.201 nM, an IC50 ([1]; cell proliferation, 72 hours) of 166 nM and an IC50 [3, 8] of 193 nM.
